In general, solubility refers to how much of the substance goes into solution per volume.

The nature of one data set: physchem. It is filed as physicochemical. Conditions: thermodynamic from solid. As for the experimental part:
Assay 5: Solubility Assay in Organic Excipients The purpose of this assay was to quantify the solubility of test compounds in different organic excipients such as diisopropyl adipate, medium chain triglycerides (MCT), propylene glycol, and polyethylene glycol. The assay required 80 μL of 100 mM DMSO test compound solution per desired excipient in addition to 40 μL required to make a test standard. For example, to test a compound in all five […]) of 100 mM DMSO compound stock solution was required. The standard was created by diluting 40 μL of 100 mM DMSO compound stock solution into 160 μL of methanol and was shaken for five minutes to ensure solution uniformity. […] This 20,000 μM solution was run on an Agilent 1260 LC-MS system by injecting 0.2 μL in order to obtain the peak area. For the test solutions, 80 μL of 100 mM DMSO compound stock solution, per excipient, were dried down into a powder overnight. Once in powder form, 400 μL of the desired excipient was added to the powder and allowed to shake vigorously for four hours. The maximum theoretical concentration for this sample solution was 20,000 μM. After four hours of shaking, the samples were centrifuged for 10 minutes at 3,000 RPM before injecting 0.2 μL on the same Agilent 1260 LC-MS system to obtain the peak area. […] In Table 3 below, A represents a value above 10, B represents a value between 5 and 10, C represents a value below 5.

Data set [1] concerns IL-2 stimulated STAT5 phosphorylation in Tall-1 human T cell line (JAK1/3). The data set is described as follows: Inhibition of IL-2 stimulated pSTAT5 in Tall-1 T cells. It is filed as cell-based. Conditions: IL-2 300 ng/mL, AlphaLisa, read-out: Tall-1 IL2 pSTAT5 (pIC50) (converted). As for the experimental part:
Assay 2: Inhibition of IL-2 Stimulated pSTAT5 in Tall-1 T Cells
The potency of test compounds for inhibition of interleukin-2 (IL-2) stimulated STATS phosphorylation was measured in the Tall-1 human T cell line (DSMZ) using AlphaLisa. Because IL-2 signals through JAK1/3, this assay provides a measure of JAK1/3 cellular potency.
Phosphorylated STAT5 was measured via the AlphaLISA SureFire Ultra pSTAT5 (Tyr694/699) kit (PerkinElmer). Human T cells from the Tall-1 cell line were cultured in a 37° C., 5% CO2 humidified incubator in RPMI (Life Technologies) supplemented with 15% Heat Inactivated Fetal Bovine Serum (FBS, Life Technologies), 2 mM Glutamax (Life Technologies), 25 mM HEPES (Life Technologies) and 1× Pen/Strep (Life Technologies). Compounds were serially diluted in DMSO and dispensed acoustically to empty wells. Assay media (phenol red-free DMEM (Life Technologies) supplemented with 10% FBS (ATCC)) was dispensed (4 μL/well) and plates shaken at 900 rpm for 10 mins. Cells were seeded at 45,000 cells/well in assay media (4 μL/well), and incubated at 37° C., 5% CO2 for 1 hour, followed by the addition of IL-2 (R&D Systems; final concentration 300 ng/mL) in pre-warmed assay media (4 μL) for 30 minutes. After cytokine stimulation, cells were lysed with 6 ul of 3× AlphaLisa Lysis Buffer (PerkinElmer) containing 1× PhosStop and Complete tablets (Roche). The lysate was shaken at 900 rpm for 10 minutes at room temperature (RT). Phosphorylated STAT5 was measured via the pSTAT5 AlphaLisa kit (PerkinElmer). Freshly prepared acceptor bead mixture was dispensed onto lysate (5 μL) under green filtered <100 lux light. Plates were shaken at 900 rpm for 2 mins, briefly spun down, and incubated for 2 hrs at RT in the dark. Donor beads were dispensed (5 μL) under green filtered <100 lux light. Plates were shaken at 900 rpm for 2 minutes, briefly spun down, and incubated overnight at RT in the dark. Luminescence was measured with excitation at 689 nm and emission at 570 nm using an EnVision plate r reader (PerkinElmer) under green filtered <100 lux light.
To determine the inhibitory potency of test compounds in response to IL-2, the average emission intensity of beads bound to pSTAT5 was measured in a human T cell line. IC50 values were determined from analysis of the inhibition curves of signal intensity versus compound concentration. Data are expressed as pIC50 (negative decadic logarithm IC50) values (mean±standard deviation).
(In general: In Alpha technology, singlet oxygen from a donor bead excites a nearby acceptor bead.)

The target in the next data set is T1, Tyk2 (Homo sapiens, UniProt P29597).
T1 construct: GST; purchased Life Technologies
Put plainly: Biochemical LanthaScreen Tyk2 kinase assay. Conditions: Km ATP 10 μM; pKi from pIC50 by Cheng-Prusoff; read-out: Tyk 2 (pKi) (converted). The method, then: Assay 1: Biochemical JAK and Tyk2 Kinase Assays A panel of four LanthaScreen JAK biochemical assays (JAK1, 2, 3 and Tyk2) were carried in a common kinase reaction buffer (50 mM HEPES, pH 7.5, 0.01% Brij-35, 10 mM MgCl2, and 1 mM EGTA). Recombinant GST-tagged JAK enzymes and a GFP-tagged STAT1 peptide substrate were obtained from Life Technologies. Serially or discretely diluted compounds were pre-incubated with each of the four JAK enzymes and the substrate in white 384-well microplates (Corning) at ambient temperature for 1 h. ATP was subsequently added to initiate the kinase reactions in 10 μL total volume, with 1% DMSO. […] Kinase reactions were allowed to proceed for 1 hour at ambient temperature before a 10 μL preparation of EDTA (10 mM final concentration) and Tb-anti-pSTAT1 ([…]) antibody (Life Technologies, 2 nM final concentration) in TR-FRET dilution buffer (Life Technologies) was added. The plates were allowed to incubate at ambient temperature for 1 h before being read on the EnVision reader (Perkin Elmer). Emission ratio signals (520 nm/495 nm) were recorded and utilized to calculate the percent inhibition values based on DMSO and background controls. For dose-response analysis, percent inhibition data were plotted vs. compound concentrations, and IC50 values were determined from a 4-parameter robust fit model with the Prism software (GraphPad Software). Results were expressed as pIC50 (negative logarithm of IC50) and subsequently converted to pKi (negative logarithm of dissociation constant, Ki) using the Cheng-Prusoff equation.
(In general: TR-FRET usually uses a lanthanide donor and a delayed reading to cut background.)

[2] abbreviates: oil or lipid, Solubility in MCT.
Where [3] appears, read: organic solvent or mixture, Solubility in Diisopropyl adipate.
[4] abbreviates: organic solvent or mixture, Solubility in PEG400.
[5] abbreviates: organic solvent or mixture, Solubility in Propylene glycol.
[6] abbreviates: organic solvent or mixture, Solubility in Transcutol.

In brackets after ≈: the same amount, converted by molar mass.

T1 sequence (P29597 whole entry): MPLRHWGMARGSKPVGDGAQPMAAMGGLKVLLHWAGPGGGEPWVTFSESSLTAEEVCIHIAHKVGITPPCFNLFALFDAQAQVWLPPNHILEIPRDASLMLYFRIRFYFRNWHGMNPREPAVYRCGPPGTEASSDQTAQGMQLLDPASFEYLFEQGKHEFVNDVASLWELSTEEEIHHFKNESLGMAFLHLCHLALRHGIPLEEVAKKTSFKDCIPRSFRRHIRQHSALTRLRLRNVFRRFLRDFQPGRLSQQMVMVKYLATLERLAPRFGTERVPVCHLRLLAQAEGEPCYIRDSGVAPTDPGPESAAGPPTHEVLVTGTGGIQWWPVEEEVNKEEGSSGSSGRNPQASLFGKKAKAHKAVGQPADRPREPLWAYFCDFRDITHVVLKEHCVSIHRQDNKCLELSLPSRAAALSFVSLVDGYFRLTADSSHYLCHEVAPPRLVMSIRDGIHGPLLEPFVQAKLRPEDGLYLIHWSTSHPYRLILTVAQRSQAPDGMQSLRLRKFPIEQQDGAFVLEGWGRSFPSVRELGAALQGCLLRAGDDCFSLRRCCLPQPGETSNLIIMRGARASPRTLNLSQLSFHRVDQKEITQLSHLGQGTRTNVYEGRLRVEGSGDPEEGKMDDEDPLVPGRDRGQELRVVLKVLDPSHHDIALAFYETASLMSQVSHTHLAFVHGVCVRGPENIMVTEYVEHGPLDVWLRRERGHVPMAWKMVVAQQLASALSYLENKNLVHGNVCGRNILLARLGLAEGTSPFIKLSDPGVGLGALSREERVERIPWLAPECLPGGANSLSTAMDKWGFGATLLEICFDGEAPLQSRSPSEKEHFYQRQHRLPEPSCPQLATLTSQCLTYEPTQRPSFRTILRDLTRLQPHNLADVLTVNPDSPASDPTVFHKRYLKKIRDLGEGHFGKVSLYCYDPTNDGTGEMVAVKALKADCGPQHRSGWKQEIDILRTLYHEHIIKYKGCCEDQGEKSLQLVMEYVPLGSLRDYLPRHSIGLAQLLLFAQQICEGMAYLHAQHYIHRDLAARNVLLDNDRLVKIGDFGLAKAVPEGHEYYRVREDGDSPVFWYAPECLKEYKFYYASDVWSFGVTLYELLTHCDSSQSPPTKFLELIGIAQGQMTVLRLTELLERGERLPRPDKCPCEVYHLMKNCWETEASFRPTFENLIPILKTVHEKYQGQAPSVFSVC

In the case of `CCS(=O)(=O)N1[C@@H]2CCC[C@H]1C[C@H](N(C)c1nc(COC(C)=O)c(F)c(Nc3cc(C)[nH]n3)n1)C2` [Compound 1, (2-(((1R,3s,5S)-9-(ethylsulfonyl)-9-azabicyclo[3.3.1]nonan-3-yl)(methyl)amino)-5-fluoro-6-((5-methyl-1H-pyrazol-3-yl)amino)pyrimidin-4-yl)methyl acetate], the solubility at 4 h in the data set “physchem” (setting [2]) is below 5000 µg/mL; in the data set “physchem” (setting [3]), above 10000 µg/mL; in “physchem” (setting [4]) it was 5000 to 10000 µg/mL; in “physchem” (setting [5]) it was above 10000 µg/mL; in the data set “physchem” (setting [6]), above 10000 µg/mL. The IC50 in data set [1] is at most 10 nM. Besides, the Ki on Tyk2 was at most 0.1 nM.

In the case of `CCC(=O)OCc1nc(N(C)[C@@H]2C[C@H]3CCC[C@@H](C2)N3S(=O)(=O)CC)nc(Nc2cc(C)[nH]n2)c1F` [Compound 2, (2-(((1R,3s,5S)-9-(ethylsulfonyl)-9-azabicyclo[3.3.1]nonan-3-yl)(methyl)amino)-5-fluoro-6-((5-methyl-1H-pyrazol-3-yl)amino)pyrimidin-4-yl)methyl propionate], the solubility at 4 h in “physchem” (setting [2]) was below 5000 µg/mL; in “physchem” (setting [3]), above 10000 µg/mL; in “physchem” (setting [4]), above 10000 µg/mL; in “physchem” (setting [5]), above 10000 µg/mL; in the data set “physchem” (setting [6]) it was above 10000 µg/mL. The IC50 in data set [1] was at most 10 nM.

`CCCC(=O)OCc1nc(N(C)[C@@H]2C[C@H]3CCC[C@@H](C2)N3S(=O)(=O)CC)nc(Nc2cc(C)[nH]n2)c1F` [Compound 3, (2-(((1R,3s,5S)-9-(ethylsulfonyl)-9-azabicyclo[3.3.1]nonan-3-yl)(methyl)amino)-5-fluoro-6-((5-methyl-1H-pyrazol-3-yl)amino)pyrimidin-4-yl)methyl butyrate]: the solubility at 4 h was below 5000 µg/mL in “physchem” (setting [2]); above 10000 µg/mL in “physchem” (setting [3]); above 10000 µg/mL in “physchem” (setting [4]); above 10000 µg/mL in the data set “physchem” (setting [5]); above 10000 µg/mL in the data set “physchem” (setting [6]). Besides, the IC50 in data set [1] was at most 10 nM.

As for `CCCCC(=O)OCc1nc(N(C)[C@@H]2C[C@H]3CCC[C@@H](C2)N3S(=O)(=O)CC)nc(Nc2cc(C)[nH]n2)c1F` [Compound 4, (2-(((1R,3s,5S)-9-(ethylsulfonyl)-9-azabicyclo[3.3.1]nonan-3-yl)(methyl)amino)-5-fluoro-6-((5-methyl-1H-pyrazol-3-yl)amino)pyrimidin-4-yl)methyl pentanoate], the solubility at 4 h in “physchem” (setting [2]) is below 5000 µg/mL; in the data set “physchem” (setting [3]), above 10000 µg/mL; in the data set “physchem” (setting [4]), above 10000 µg/mL; in “physchem” (setting [5]) it was below 5000 µg/mL; in “physchem” (setting [6]), above 10000 µg/mL. Also, in data set [1], the IC50 is at most 10 nM.

For `CCCCCCC(=O)OCc1nc(N(C)[C@@H]2C[C@H]3CCC[C@@H](C2)N3S(=O)(=O)CC)nc(Nc2cc(C)[nH]n2)c1F` [Compound 5, (2-(((1R,3s,5S)-9-(ethylsulfonyl)-9-azabicyclo[3.3.1]nonan-3-yl)(methyl)amino)-5-fluoro-6-((5-methyl-1H-pyrazol-3-yl)amino)pyrimidin-4-yl)methyl heptanoate], the solubility at 4 h is below 5000 µg/mL in the data set “physchem” (setting [2]); above 10000 µg/mL in the data set “physchem” (setting [3]); above 10000 µg/mL in “physchem” (setting [4]); 5000 to 10000 µg/mL (≈ 8.62 to 17.2 mM) in the data set “physchem” (setting [5]); above 10000 µg/mL in the data set “physchem” (setting [6]). For the same compound, the IC50 in data set [1] is at most 10 nM.

In the case of `CCS(=O)(=O)N1[C@@H]2CCC[C@H]1C[C@H](N(C)c1nc(COC(=O)OC3CCCCC3)c(F)c(Nc3cc(C)[nH]n3)n1)C2` [Compound 6, cyclohexyl ((2-(((1R,3s,5S)-9-(ethylsulfonyl)-9-azabicyclo[3.3.1]nonan-3-yl)(methyl)amino)-5-fluoro-6-((5-methyl-1H-pyrazol-3-yl)amino)pyrimidin-4-yl)methyl) carbonate], the solubility at 4 h in the data set “physchem” (setting [2]) is below 5000 µg/mL; in the data set “physchem” (setting [3]) it was above 10000 µg/mL; in the data set “physchem” (setting [4]), 5000 to 10000 µg/mL (≈ 8.42 to 16.8 mM); in the data set “physchem” (setting [5]), 5000 to 10000 µg/mL (≈ 8.42 to 16.8 mM); in the data set “physchem” (setting [6]), above 10000 µg/mL. Further, the IC50 in data set [1] is 10 to 31.6 nM. The Ki at Tyk2 is 1 to 10 nM.

Regarding `CCS(=O)(=O)N1[C@@H]2CCC[C@H]1C[C@H](N(C)c1nc(COC(=O)C3CCOCC3)c(F)c(Nc3cc(C)[nH]n3)n1)C2` [Compound 7, (2-(((1R,3s,5S)-9-(ethylsulfonyl)-9-azabicyclo[3.3.1]nonan-3-yl)(methyl)amino)-5-fluoro-6-((5-methyl-1H-pyrazol-3-yl)amino)pyrimidin-4-yl)methyl tetrahydro-2H-pyran-4-carboxylate], the solubility at 4 h in “physchem” (setting [2]) was below 5000 µg/mL; in the data set “physchem” (setting [3]) it was above 10000 µg/mL; in “physchem” (setting [4]) it was above 10000 µg/mL; in the data set “physchem” (setting [5]), above 10000 µg/mL. Also, the IC50 in data set [1] is at most 10 nM. Further, the Ki at Tyk2 was at most 0.1 nM.

As for `CCS(=O)(=O)N1[C@@H]2CCC[C@H]1C[C@H](N(C)c1nc(COC(=O)OC(C)C)c(F)c(Nc3cc(C)[nH]n3)n1)C2` [Compound 8, (2-(((1R,3s,5S)-9-(ethylsulfonyl)-9-azabicyclo[3.3.1]nonan-3-yl)(methyl)amino)-5-fluoro-6-((5-methyl-1H-pyrazol-3-yl)amino)pyrimidin-4-yl)methyl isopropyl carbonate], the solubility at 4 h in “physchem” (setting [2]) is below 5000 µg/mL; in the data set “physchem” (setting [3]) it was above 10000 µg/mL; in “physchem” (setting [4]), above 10000 µg/mL; in “physchem” (setting [5]), below 5000 µg/mL. Further, in data set [1], the IC50 was at most 10 nM.

With `CCS(=O)(=O)N1[C@@H]2CCC[C@H]1C[C@H](N(C)c1nc(COC(=O)OC3CCOCC3)c(F)c(Nc3cc(C)[nH]n3)n1)C2` [Compound 9, (2-(((1R,3s,5S)-9-(ethylsulfonyl)-9-azabicyclo[3.3.1]nonan-3-yl)(methyl)amino)-5-fluoro-6-((5-methyl-1H-pyrazol-3-yl)amino)pyrimidin-4-yl)methyl (tetrahydro-2H-pyran-4-yl) carbonate], the solubility at 4 h was below 5000 µg/mL in “physchem” (setting [2]), above 10000 µg/mL in the data set “physchem” (setting [3]), above 10000 µg/mL in “physchem” (setting [4]) and above 10000 µg/mL in “physchem” (setting [5]). For the same compound, the IC50 in data set [1] is at most 10 nM. For the same compound, the Ki on Tyk2 is 0.1 to 1 nM.

(Values after patent publication US11845747B2, “Ester and carbonate pyrimidine compounds as JAK kinase inhibitors” (priority 2019, dated 2023).)
